Columns and labels:
[1] = test system: HER2 positive breast cancer (HER2+ BC) cell line JIMT-1; assay: MTS cell viability assay, JIMT-1 breast cancer cell line; type: cell-based; settings: Homo sapiens, 0 to 10 μM, FIG. 3, one range stated for both cell lines and three compounds
Experimental: (§1) Human triple-negative breast cancer (TNBC) cell line MDA-MB-231 (Cell seeding numbers: 1(M231)×10^4 cells/wells (confluency ≥25%) and HER2 positive breast cancer (HER2^+ BC) cell line JIMT-1 (Cell seeding numbers: 1.2(JIMT)×10^4 cells/wells (confluency ≥25%)) were used in the experiments.
(§2) The above mentioned cell lines were cultured under a 5% CO2 environment at 37° C. in Dulbecco's modified Eagle's medium (DMEM) containing 10% fetal bovine serum (FBS), streptomycin-penicillin (100 U/mL) and Fungizone ([…]), respectively.
(§3) The human breast cancer cell lines MDA-MB-231 and JIMT-1 were treated with thiobenzimidazole derivatives of Chemical Formula 1-1 to Chemical Formula 1-17 at concentrations of 0, 0.5, 1 and 5 μM for 72 hours, respectively, and then cell viability was measured by MTS assay. The MTS assay was performed by attaching cells to 96-well plates for 24 hours, treating them with the above mentioned thiobenzimidazole derivatives for 72 hours, and then developing them with MTS (3-(4,5-dimethylthiazol-2-yl)-5-(3-carboxymethoxyphenyl)-2-(4-sulfophenyl)-2H-tetrazolium) for 4 hours, and measuring the absorbance at 490 nm using a Spectramax Plus384 microplate analyzer.
(§4) MDA-MB-231 and JIMT-1 cell lines were treated with the thiobenzimidazole derivatives of the present disclosure (Chemical Formula 1-10, 1-11 and 1-15) at concentrations of 0. 0.01, 0.05, 0.1, 0.1, 0.25, 0.5, 1, 5 and 10 μM, respectively, and then the cell viability and corresponding IC50 values were determined. The preparation and experimentation methods for the cell lines were the same as those used in the Example 1 experiments.

[2] = test system: Human triple-negative breast cancer (TNBC) cell line MDA-MB-231; assay: MTS cell viability assay, MDA-MB-231 breast cancer cell line; type: cell-based; settings: 0 to 10 μM, FIG. 3, one range stated for both cell lines and three compounds
Experimental: as §1, §2, §3, §4

IC50 [1] | IC50 [2] | SMILES
150 to 350 nM | 150 to 350 nM | COC(=O)Nc1nc2cc(Sc3ccc(N4CCC(O)CC4)cc3)ccc2[nH]1 [1-15]
150 to 350 nM | 150 to 350 nM | COC(=O)Nc1nc2cc(Sc3ccc(N4CCS(=O)(=O)CC4)cc3)ccc2[nH]1 [1-10]
150 to 350 nM | 150 to 350 nM | COC(=O)Nc1nc2cc(Sc3ccc(N4CC(C)N(S(C)(=O)=O)C(C)C4)cc3)ccc2[nH]1 (stereo not drawn) [1-11]

— US20250214945A1, “THIOBENZIMIDAZOLE DERIVATIVE OR PHARMACEUTICALLY ACCEPTABLE SALT THEREOF, AND USE THEREOF” (KOREA UNIVERSITY RESEARCH AND BUSINESS FOUNDATION, priority 2022, published 2025)
